Measurements published in patent US20140005163A1 (NOVARTIS AG, priority 2010, published 2014).

Legend:
PI3K alpha = biological target: T1, PI3K alpha (Homo sapiens, UniProt P42336); assay: PI3K alpha kinase assay (Kinase-Glo luminescence); type: biochemical
T1 construct: p85(iSH2) fusion partner (see partner chain) (N); His tag (C); made in house; host or cells: baculovirus; Tn5 (Trichoplusia ni) or TiniPro insect cells
Method in brief: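 PI3Kα construct EMV B1075 (10 nM final) was preincubated with 10 μg/mL phosphatidylinositol in 10 mM Tris-HCl pH 7.5, 3 mM MgCl2, 50 mM NaCl, 0.05% CHAPS, 1 mM DTT. Reaction started with 1 μM ATP, 60 min at room temperature; remaining ATP measured by Kinase-Glo luminescence. IC50 from 4-parameter logistic fit of 8-point titrations.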

mTOR = biological target: T2, mTOR (Homo sapiens, UniProt P42345); assay: Biochemical assay for m-TOR by TR-FRET; settings: 8 μM ATP, 400 nM GFP-4EBP1, 0.5 nM mTOR
T2 construct: purchased Invitrogen Corporation (Carlsbad/CA, USA) PV4753
T2 sequence (P42345 1360-2549 limits assumed): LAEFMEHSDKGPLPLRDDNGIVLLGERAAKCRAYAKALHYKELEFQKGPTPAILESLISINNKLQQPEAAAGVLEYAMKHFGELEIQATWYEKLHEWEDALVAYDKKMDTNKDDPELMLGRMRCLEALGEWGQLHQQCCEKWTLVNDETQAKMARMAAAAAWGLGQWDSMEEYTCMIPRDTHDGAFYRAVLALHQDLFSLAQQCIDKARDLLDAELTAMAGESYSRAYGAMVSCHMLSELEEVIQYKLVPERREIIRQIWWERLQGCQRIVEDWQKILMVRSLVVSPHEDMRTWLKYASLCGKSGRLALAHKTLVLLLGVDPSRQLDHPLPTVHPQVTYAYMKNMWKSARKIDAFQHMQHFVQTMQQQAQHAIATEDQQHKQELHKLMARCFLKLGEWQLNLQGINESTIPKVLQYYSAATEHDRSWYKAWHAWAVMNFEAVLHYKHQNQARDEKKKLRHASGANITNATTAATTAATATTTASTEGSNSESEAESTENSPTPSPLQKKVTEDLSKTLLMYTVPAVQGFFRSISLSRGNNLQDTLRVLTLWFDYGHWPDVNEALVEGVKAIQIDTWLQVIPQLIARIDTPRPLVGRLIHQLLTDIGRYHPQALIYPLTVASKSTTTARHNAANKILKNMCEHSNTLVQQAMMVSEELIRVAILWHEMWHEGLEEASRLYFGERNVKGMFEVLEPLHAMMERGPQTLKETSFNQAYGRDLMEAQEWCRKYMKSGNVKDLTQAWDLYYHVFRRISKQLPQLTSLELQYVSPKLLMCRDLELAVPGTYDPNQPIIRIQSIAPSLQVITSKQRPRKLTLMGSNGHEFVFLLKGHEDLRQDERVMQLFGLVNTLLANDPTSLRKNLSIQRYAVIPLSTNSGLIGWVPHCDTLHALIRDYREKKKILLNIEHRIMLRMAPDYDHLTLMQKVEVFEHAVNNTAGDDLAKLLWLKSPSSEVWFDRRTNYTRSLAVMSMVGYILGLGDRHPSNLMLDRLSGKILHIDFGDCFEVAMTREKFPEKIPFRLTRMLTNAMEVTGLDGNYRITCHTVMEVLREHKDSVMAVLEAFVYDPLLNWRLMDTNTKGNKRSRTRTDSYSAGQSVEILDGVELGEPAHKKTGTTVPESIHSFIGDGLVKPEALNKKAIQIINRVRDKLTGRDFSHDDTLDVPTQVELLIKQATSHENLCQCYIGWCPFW
Method in brief: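 TR-FRET detection of pThr46 on GFP-4EBP1 (400 nM final) using Tb3+-labelled antibody (0.5 nM), added with EDTA to stop reactions. Reactions ran at rt with 0.5 nM mTOR and 8 μM ATP (final) in HEPES pH 7.5 buffer containing 10 mM MnCl2.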

[1] = test system: S6 Ribosomal Protein phosphorylation Ser235/236 in TSC1 null mouse embryo fibroblast (MEF) cells; assay: Reverse protein array assay, S6 Ribosomal Protein phosphorylation Ser235/236 in TSC1 null MEF cells; type: cell-based; settings: 1 h, pS6 ribosomal protein Ser235/236, 60 minutes incubation, read-out: p-S6 IC50
Method in brief: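 TSC1−/− MEFs, seeded and held ≥20 h at 37 °C/5% CO2, were exposed to 8-step serial compound dilutions (0.02% DMSO final; DMSO vehicle control) for 60 min at 37 °C. Cells were then lysed on ice for 10 min and lysates spotted onto reverse protein array chips.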

T1 sequence (P42336 with tags, fused parts or gaps limits assumed): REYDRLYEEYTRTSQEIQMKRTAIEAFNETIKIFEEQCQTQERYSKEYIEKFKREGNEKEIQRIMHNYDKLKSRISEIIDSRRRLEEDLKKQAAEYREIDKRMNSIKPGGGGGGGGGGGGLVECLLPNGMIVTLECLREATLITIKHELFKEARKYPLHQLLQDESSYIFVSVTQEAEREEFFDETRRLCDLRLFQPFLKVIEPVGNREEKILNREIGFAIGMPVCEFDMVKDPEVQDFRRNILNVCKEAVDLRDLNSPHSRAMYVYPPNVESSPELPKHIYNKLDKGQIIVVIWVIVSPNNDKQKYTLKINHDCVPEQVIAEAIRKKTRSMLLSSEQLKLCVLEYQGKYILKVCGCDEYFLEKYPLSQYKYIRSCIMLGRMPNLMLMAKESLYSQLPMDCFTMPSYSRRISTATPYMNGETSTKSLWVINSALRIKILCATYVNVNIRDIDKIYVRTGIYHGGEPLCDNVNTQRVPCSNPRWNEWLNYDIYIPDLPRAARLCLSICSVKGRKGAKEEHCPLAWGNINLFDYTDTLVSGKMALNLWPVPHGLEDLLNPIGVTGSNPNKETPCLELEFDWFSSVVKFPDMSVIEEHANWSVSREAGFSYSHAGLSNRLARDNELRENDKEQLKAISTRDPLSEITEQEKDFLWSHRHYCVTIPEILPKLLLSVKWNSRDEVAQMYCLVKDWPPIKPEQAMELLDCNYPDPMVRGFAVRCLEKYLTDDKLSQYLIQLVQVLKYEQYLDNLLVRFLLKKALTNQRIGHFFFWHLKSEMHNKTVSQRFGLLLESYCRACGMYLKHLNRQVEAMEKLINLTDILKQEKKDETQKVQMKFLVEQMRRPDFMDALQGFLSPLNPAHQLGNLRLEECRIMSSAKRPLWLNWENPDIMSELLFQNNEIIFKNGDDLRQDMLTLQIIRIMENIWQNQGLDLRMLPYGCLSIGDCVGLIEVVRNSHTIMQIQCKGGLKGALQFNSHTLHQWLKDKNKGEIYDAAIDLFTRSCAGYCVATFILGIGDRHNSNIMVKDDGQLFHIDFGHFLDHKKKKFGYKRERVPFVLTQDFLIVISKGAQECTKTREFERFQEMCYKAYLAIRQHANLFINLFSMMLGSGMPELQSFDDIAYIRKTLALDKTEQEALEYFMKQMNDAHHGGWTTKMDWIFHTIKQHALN

SMILES	IC50 (PI3K alpha) [µM]	IC50 (mTOR) [µM]	IC50 [1] [µM]
CCN(C)C(=O)Cn1cc(-n2c(=O)n(C)c3cnc4ccc(-c5ccccc5)cc4c32)c(C)n1 [Example 135, N-Ethyl-N-methyl-2-[3-methyl-4-(3-methyl-2-oxo-8-phenyl-2,3-dihydro-imidazo[4,5-c]quinolin-1-yl)-pyrazol-1-yl]-acetamide]	0.076	0.14	0.006
CCN(C)C(=O)Cn1cc(-n2c(=O)n(C)c3cnc4ccc(-c5cnc(N6CCCC6)nc5)cc4c32)c(C)n1 [Example 140.1, N-Ethyl-N-methyl-2-{3-methyl-4-[3-methyl-2-oxo-8-(2-pyrrolidin-1-yl-pyrimidin-5-yl)-2,3-dihydro-imidazo[4,5-c]quinolin-1-yl]-pyrazol-1-yl}-acetamide]	0.168	0.036	0.005
CNc1ncc(-c2ccc3ncc4c(c3c2)n(-c2c(C)nn(C)c2C)c(=O)n4C)cc1F [Example 141.1, 8-(5-Fluoro-6-methylamino-pyridin-3-yl)-3-methyl-1-(1,3,5-trimethyl-1H-pyrazol-4-yl)-1,3-dihydro-imidazo[4,5-c]quinolin-2-one]	0.817	0.447	0.034
CNc1ncc(-c2ccc3ncc4c(c3c2)n(-c2cn(C)nc2C)c(=O)n4C)cc1F [Example 141.2, 1-(1,3-Dimethyl-1H-pyrazol-4-yl)-8-(5-fluoro-6-methylamino-pyridin-3-yl)-3-methyl-1,3-dihydro-imidazo[4,5-c]quinolin-2-one]	0.014	0.007	0.001
Cc1nn(C)c(C)c1-n1c(=O)n(C)c2cnc3ccc(-c4cnc(N)c(F)c4)cc3c21 [Example 142.1, 8-(6-Amino-5-fluoro-pyridin-3-yl)-3-methyl-1-(1,3,5-trimethyl-1H-pyrazol-4-yl)-1,3-dihydro-imidazo[4,5-c]quinolin-2-one]	0.028	0.481	0.036
CNc1ncc(-c2ccc3ncc4c(c3c2)n(-c2c(C)nn(C)c2C)c(=O)n4C)cc1Cl [Example 146.4, 8-(5-Chloro-6-methylamino-pyridin-3-yl)-3-methyl-1-(1,3,5-trimethyl-1H-pyrazol-4-yl)-1,3-dihydro-imidazo[4,5-c]quinolin-2-one]	0.035	0.309	0.012
CNc1ncc(-c2ccc3ncc4c(c3c2)n(-c2cc(C)nn2C)c(=O)n4C)cc1Cl [Example 146.5, 8-(5-Chloro-6-methylamino-pyridin-3-yl)-1-(2,5-dimethyl-2H-pyrazol-3-yl)-3-methyl-1,3-dihydro-imidazo[4,5-c]quinolin-2-one]	0.009	0.048	0.00266
Cc1noc(C)c1-n1c(=O)n(C)c2cnc3ccc(-c4cnc(N)c(Cl)c4)cc3c21 [Example 148.4, 8-(6-Amino-5-chloro-pyridin-3-yl)-1-(3,5-dimethyl-isoxazol-4-yl)-3-methyl-1,3-dihydro-imidazo[4,5-c]quinolin-2-one]	0.1	0.678	0.0177
CNc1cc(-c2ccc3ncc4c(c3c2)n(-c2cn(C)nc2C)c(=O)n4C)cnc1F [Example 150.2, 1-(1,3-Dimethyl-1H-pyrazol-4-yl)-8-(6-fluoro-5-methylamino-pyridin-3-yl)-3-methyl-1,3-dihydro-imidazo[4,5-c]quinolin-2-one]	0.009	0.008	0.001
CCNc1cc(-c2ccc3ncc4c(c3c2)n(-c2c(C)nn(C)c2C)c(=O)n4C)cnc1F [Example 154.1, 8-(5-Ethylamino-6-fluoro-pyridin-3-yl)-3-methyl-1-(1,3,5-trimethyl-1H-pyrazol-4-yl)-1,3-dihydro-imidazo[4,5-c]quinolin-2-one]	0.157	0.619	0.003

Now from value to molecule, other results behind:

IC50 (PI3K alpha) [µM]	IC50 (mTOR) [µM]	SMILES	IC50 [1] [µM]
0.005	< 0.003	Cc1ncc(-c2ccc3ncc4c(c3c2)n(-c2cn(C)nc2C)c(=O)n4C)cc1N(C)C [Example 164, 8-(5-Dimethylamino-6-methyl-pyridin-3-yl)-1-(1,3-dimethyl-1H-pyrazol-4-yl)-3-methyl-1,3-dihydro-imidazo[4,5-c]quinolin-2-one]	0.001
0.033	0.058	CCNc1ncc(-c2ccc3ncc4c(c3c2)n(-c2cn(C)nc2C)c(=O)n4C)cc1COCC [Example 167, 1-(1,3-Dimethyl-1H-pyrazol-4-yl)-8-(5-ethoxymethyl-6-ethylamino-pyridin-3-yl)-3-methyl-1,3-dihydro-imidazo[4,5-c]quinolin-2-one]	0.007
0.023	0.041	CCn1cc(-n2c(=O)n(C)c3cnc4ccc(-c5cnc(N)c(COC)c5)cc4c32)c(C)n1 [Example 168.2, 8-(6-Amino-5-methoxymethyl-pyridin-3-yl)-1-(1-ethyl-3-methyl-1H-pyrazol-4-yl)-3-methyl-1,3-dihydro-imidazo[4,5-c]quinolin-2-one]	< 0.0005
0.005	< 0.003	Cc1ncc(-c2ccc3ncc4c(c3c2)n(-c2cn(C)nc2C)c(=O)n4C)cc1O [Example 185.1, 1-(1,3-Dimethyl-1H-pyrazol-4-yl)-8-(5-hydroxy-6-methyl-pyridin-3-yl)-3-methyl-1,3-dihydro-imidazo[4,5-c]quinolin-2-one]	0.035
0.004	0.017	Cc1ncc(-c2ccc3ncc4c(c3c2)n(-c2cn(C)nc2C)c(=O)n4C)cc1OC(CF)CF [Example 189, 1-(1,3-Dimethyl-1H-pyrazol-4-yl)-8-[5-(2-fluoro-1-fluoromethyl-ethoxy)-6-methyl-pyridin-3-yl]-3-methyl-1,3-dihydro-imidazo[4,5-c]quinolin-2-one]	0.001
0.013	0.037	Cc1nn(C)cc1-n1c(=O)n(C)c2cnc3ccc(-c4cnc(CO)c(OC(C)C)c4)cc3c21 [Example 190, 1-(1,3-Dimethyl-1H-pyrazol-4-yl)-8-(6-hydroxymethyl-5-isopropoxy-pyridin-3-yl)-3-methyl-1,3-dihydro-imidazo[4,5-c]quinolin-2-one]	0.002
0.014	0.025	COCc1ncc(-c2ccc3ncc4c(c3c2)n(-c2cn(C)nc2C)c(=O)n4C)cc1OC(C)C [Example 191.1, 1-(1,3-Dimethyl-1H-pyrazol-4-yl)-8-(5-isopropoxy-6-methoxymethyl-pyridin-3-yl)-3-methyl-1,3-dihydro-imidazo[4,5-c]quinolin-2-one]	0.004
0.019	0.021	COc1cc(-c2ccc3ncc4c(c3c2)n(-c2cn(C)nc2C)c(=O)n4C)cnc1CO [Example 193, 1-(1,3-Dimethyl-1H-pyrazol-4-yl)-8-(6-hydroxymethyl-5-methoxy-pyridin-3-yl)-3-methyl-1,3-dihydro-imidazo[4,5-c]quinolin-2-one]	0.00553
0.018	0.048	COCc1ncc(-c2ccc3ncc4c(c3c2)n(-c2cn(C)nc2C)c(=O)n4C)cc1OC [Example 195.1, 1-(1,3-Dimethyl-1H-pyrazol-4-yl)-8-(5-methoxy-6-methoxymethyl-pyridin-3-yl)-3-methyl-1,3-dihydro-imidazo[4,5-c]quinolin-2-one]	0.005
0.037	0.087	COCc1ncc(-c2ccc3ncc4c(c3c2)n(-c2cn(C(C)C)nc2C)c(=O)n4C)cc1OC [Example 195.2, 1-(1-Isopropyl-3-methyl-1H-pyrazol-4-yl)-8-(5-methoxy-6-methoxymethyl-pyridin-3-yl)-3-methyl-1,3-dihydro-imidazo[4,5-c]quinolin-2-one]	0.031
0.048	0.076	CCn1cc(-n2c(=O)n(C)c3cnc4ccc(-c5cnc(COC)c(OC)c5)cc4c32)c(C)n1 [Example 195.3, 1-(1-Ethyl-3-methyl-1H-pyrazol-4-yl)-8-(5-methoxy-6-methoxymethyl-pyridin-3-yl)-3-methyl-1,3-dihydro-imidazo[4,5-c]quinolin-2-one]	0.031
0.015	0.012	[2H]C([2H])([2H])OCc1ncc(-c2ccc3ncc4c(c3c2)n(-c2cn(C)nc2Cl)c(=O)n4C)cc1OC [Example 199, 1-(3-Chloro-1-methyl-1H-pyrazol-4-yl)-8-(5-methoxy-6-trideuteromethoxymethyl-pyridin-3-yl)-3-methyl-1,3-dihydro-imidazo[4,5-c]quinolin-2-one]	0.002
0.011	0.029	COCc1cc(-c2ccc3ncc4c(c3c2)n(-c2cn(C)nc2C)c(=O)n4C)cnc1OC [Example 202, 1-(1,3-Dimethyl-1H-pyrazol-4-yl)-8-(6-methoxy-5-methoxymethyl-pyridin-3-yl)-3-methyl-1,3-dihydro-imidazo[4,5-c]quinolin-2-one]	0.001
